Measurements reported in patent US9097693B2, “Simple analysis method of drugs” (priority 2005, dated 2015).
Where two headings read alike, the source gives them in different places.

Settings: for nicotine content in hair: smoker, three 6 cm hairs (about 0.9 mg)
Experimental: Three 60 mm hairs (about 0.9 mg) were put in a stainless injection needle (inner diameter of 0.5 mm, outer diameter of 0.7 mm, the tip conical part length of 2 mm, the container part length of 80 mm, and one aperture of 0.4 mm in diameter in the lateral side of the end of the container). A syringe was fixed to the needle and methanol, dichloromethane and methanol each one ml were run in this order through the needle to wash the hairs.
Then, the needle was inserted into an injector (at 300° C.) of a gas chromatograph (Agilent, HP-6890) and held for 15 seconds. Then, dichloromethane (25 μL) was injected for desorption and a carrier gas was run. The chromatography was conducted under the following conditions. • Column diameter: 0.25 mm • Column length: 25 m • Column stationary phase: dimethylpolysiloxane (HR-1) • Column temperature: 50° C. to 300° C. (temperature rising: 5° C./min) • Carrier gas: helium • Carrier gas flow: 0.9 ml/min • Split ratio: 25:1 • Detector: MS (Agilent, HP-5972)
Three 6 cm hairs (about 0.9 mg) were used for the analysis.

CN1CCCC1c1cccnc1 (stereo not shown) [nicotine]
nicotine detection in hair (hair of smoker, three 60 mm hairs (about 0.9 mg), GC-MS): clearly detected | nicotine content in hair (10 cigarettes per day, tobacco brand B (nominal nicotine 0.7 mg)): 11.5 ng/mg | nicotine content in hair (15 cigarettes per day, tobacco brand E (nominal nicotine 0.8 mg)): 8.2 ng/mg | nicotine content in hair (15 cigarettes per day, tobacco brand F (nominal nicotine 0.1 mg)): 13.0 ng/mg | nicotine content in hair (20 cigarettes per day, tobacco brand A (nominal nicotine 1.2 mg)): 12.1 ng/mg | nicotine content in hair (20 cigarettes per day, tobacco brand D (nominal nicotine 0.1 mg)): 30.5 ng/mg | nicotine content in hair (30 cigarettes per day, tobacco brand C (nominal nicotine 0.4 mg)): 55.3 ng/mg
